One assay concerns the target LDL (apoB-100) (Homo sapiens, UniProt P04114). Briefly: Circular dichroism of LDL secondary structure. Particulars: LDL 100 μg/ml with compound 10 μM, PBS pH 7.4, 37° C.; for random coil of LDL protein: normal LDL 27±2%; for α helical structure of LDL protein: normal LDL ~40±2%. On the technique in general: CD spectra are sensitive to the conformation of chiral molecules.

The test system of the next assay is J774.1 macrophages. Briefly: Lipid-loading assay (foam cell formation). The class given is cell-based, murine. The following applies: LDL 100 μg/mL plus compound 20 μM, 72 h, oil red O stain. The method, then:
Lipid-loading assay (foam cell formation). J774.1 macrophages were incubated in ATCC-recommended media containing 10% fetal bovine serum under a controlled atmosphere of 5 or 7% CO2 at 37° C., in 8-well chamber slides. […] At termination, cells were washed twice with PBS (pH 7.4). The cells were then fixed with 6% (v/v) paraformaldehyde in PBS for 30 minutes, rinsed with propylene glycol for 2 minutes and lipids were stained with 5 mg/ml Oil Red O for 8 minutes. The cells were counterstained with Harris' hematoxylin for 45 seconds, and background staining was removed with […] followed by washing once in PBS and once in tap water. Cover slips were mounted onto the glass slides using glycerol and the slide preparations were examined by light microscopy. The number of lipid-laden cells was scored out of a total of at least 100 cells counted in a single field in each slide, and expressed as a percentage of total cells. Photographs were taken at 100×magnification.

“Also recorded” adds a separate entry of the source.

LDL (apoB-100), sequence (P04114 28-4563): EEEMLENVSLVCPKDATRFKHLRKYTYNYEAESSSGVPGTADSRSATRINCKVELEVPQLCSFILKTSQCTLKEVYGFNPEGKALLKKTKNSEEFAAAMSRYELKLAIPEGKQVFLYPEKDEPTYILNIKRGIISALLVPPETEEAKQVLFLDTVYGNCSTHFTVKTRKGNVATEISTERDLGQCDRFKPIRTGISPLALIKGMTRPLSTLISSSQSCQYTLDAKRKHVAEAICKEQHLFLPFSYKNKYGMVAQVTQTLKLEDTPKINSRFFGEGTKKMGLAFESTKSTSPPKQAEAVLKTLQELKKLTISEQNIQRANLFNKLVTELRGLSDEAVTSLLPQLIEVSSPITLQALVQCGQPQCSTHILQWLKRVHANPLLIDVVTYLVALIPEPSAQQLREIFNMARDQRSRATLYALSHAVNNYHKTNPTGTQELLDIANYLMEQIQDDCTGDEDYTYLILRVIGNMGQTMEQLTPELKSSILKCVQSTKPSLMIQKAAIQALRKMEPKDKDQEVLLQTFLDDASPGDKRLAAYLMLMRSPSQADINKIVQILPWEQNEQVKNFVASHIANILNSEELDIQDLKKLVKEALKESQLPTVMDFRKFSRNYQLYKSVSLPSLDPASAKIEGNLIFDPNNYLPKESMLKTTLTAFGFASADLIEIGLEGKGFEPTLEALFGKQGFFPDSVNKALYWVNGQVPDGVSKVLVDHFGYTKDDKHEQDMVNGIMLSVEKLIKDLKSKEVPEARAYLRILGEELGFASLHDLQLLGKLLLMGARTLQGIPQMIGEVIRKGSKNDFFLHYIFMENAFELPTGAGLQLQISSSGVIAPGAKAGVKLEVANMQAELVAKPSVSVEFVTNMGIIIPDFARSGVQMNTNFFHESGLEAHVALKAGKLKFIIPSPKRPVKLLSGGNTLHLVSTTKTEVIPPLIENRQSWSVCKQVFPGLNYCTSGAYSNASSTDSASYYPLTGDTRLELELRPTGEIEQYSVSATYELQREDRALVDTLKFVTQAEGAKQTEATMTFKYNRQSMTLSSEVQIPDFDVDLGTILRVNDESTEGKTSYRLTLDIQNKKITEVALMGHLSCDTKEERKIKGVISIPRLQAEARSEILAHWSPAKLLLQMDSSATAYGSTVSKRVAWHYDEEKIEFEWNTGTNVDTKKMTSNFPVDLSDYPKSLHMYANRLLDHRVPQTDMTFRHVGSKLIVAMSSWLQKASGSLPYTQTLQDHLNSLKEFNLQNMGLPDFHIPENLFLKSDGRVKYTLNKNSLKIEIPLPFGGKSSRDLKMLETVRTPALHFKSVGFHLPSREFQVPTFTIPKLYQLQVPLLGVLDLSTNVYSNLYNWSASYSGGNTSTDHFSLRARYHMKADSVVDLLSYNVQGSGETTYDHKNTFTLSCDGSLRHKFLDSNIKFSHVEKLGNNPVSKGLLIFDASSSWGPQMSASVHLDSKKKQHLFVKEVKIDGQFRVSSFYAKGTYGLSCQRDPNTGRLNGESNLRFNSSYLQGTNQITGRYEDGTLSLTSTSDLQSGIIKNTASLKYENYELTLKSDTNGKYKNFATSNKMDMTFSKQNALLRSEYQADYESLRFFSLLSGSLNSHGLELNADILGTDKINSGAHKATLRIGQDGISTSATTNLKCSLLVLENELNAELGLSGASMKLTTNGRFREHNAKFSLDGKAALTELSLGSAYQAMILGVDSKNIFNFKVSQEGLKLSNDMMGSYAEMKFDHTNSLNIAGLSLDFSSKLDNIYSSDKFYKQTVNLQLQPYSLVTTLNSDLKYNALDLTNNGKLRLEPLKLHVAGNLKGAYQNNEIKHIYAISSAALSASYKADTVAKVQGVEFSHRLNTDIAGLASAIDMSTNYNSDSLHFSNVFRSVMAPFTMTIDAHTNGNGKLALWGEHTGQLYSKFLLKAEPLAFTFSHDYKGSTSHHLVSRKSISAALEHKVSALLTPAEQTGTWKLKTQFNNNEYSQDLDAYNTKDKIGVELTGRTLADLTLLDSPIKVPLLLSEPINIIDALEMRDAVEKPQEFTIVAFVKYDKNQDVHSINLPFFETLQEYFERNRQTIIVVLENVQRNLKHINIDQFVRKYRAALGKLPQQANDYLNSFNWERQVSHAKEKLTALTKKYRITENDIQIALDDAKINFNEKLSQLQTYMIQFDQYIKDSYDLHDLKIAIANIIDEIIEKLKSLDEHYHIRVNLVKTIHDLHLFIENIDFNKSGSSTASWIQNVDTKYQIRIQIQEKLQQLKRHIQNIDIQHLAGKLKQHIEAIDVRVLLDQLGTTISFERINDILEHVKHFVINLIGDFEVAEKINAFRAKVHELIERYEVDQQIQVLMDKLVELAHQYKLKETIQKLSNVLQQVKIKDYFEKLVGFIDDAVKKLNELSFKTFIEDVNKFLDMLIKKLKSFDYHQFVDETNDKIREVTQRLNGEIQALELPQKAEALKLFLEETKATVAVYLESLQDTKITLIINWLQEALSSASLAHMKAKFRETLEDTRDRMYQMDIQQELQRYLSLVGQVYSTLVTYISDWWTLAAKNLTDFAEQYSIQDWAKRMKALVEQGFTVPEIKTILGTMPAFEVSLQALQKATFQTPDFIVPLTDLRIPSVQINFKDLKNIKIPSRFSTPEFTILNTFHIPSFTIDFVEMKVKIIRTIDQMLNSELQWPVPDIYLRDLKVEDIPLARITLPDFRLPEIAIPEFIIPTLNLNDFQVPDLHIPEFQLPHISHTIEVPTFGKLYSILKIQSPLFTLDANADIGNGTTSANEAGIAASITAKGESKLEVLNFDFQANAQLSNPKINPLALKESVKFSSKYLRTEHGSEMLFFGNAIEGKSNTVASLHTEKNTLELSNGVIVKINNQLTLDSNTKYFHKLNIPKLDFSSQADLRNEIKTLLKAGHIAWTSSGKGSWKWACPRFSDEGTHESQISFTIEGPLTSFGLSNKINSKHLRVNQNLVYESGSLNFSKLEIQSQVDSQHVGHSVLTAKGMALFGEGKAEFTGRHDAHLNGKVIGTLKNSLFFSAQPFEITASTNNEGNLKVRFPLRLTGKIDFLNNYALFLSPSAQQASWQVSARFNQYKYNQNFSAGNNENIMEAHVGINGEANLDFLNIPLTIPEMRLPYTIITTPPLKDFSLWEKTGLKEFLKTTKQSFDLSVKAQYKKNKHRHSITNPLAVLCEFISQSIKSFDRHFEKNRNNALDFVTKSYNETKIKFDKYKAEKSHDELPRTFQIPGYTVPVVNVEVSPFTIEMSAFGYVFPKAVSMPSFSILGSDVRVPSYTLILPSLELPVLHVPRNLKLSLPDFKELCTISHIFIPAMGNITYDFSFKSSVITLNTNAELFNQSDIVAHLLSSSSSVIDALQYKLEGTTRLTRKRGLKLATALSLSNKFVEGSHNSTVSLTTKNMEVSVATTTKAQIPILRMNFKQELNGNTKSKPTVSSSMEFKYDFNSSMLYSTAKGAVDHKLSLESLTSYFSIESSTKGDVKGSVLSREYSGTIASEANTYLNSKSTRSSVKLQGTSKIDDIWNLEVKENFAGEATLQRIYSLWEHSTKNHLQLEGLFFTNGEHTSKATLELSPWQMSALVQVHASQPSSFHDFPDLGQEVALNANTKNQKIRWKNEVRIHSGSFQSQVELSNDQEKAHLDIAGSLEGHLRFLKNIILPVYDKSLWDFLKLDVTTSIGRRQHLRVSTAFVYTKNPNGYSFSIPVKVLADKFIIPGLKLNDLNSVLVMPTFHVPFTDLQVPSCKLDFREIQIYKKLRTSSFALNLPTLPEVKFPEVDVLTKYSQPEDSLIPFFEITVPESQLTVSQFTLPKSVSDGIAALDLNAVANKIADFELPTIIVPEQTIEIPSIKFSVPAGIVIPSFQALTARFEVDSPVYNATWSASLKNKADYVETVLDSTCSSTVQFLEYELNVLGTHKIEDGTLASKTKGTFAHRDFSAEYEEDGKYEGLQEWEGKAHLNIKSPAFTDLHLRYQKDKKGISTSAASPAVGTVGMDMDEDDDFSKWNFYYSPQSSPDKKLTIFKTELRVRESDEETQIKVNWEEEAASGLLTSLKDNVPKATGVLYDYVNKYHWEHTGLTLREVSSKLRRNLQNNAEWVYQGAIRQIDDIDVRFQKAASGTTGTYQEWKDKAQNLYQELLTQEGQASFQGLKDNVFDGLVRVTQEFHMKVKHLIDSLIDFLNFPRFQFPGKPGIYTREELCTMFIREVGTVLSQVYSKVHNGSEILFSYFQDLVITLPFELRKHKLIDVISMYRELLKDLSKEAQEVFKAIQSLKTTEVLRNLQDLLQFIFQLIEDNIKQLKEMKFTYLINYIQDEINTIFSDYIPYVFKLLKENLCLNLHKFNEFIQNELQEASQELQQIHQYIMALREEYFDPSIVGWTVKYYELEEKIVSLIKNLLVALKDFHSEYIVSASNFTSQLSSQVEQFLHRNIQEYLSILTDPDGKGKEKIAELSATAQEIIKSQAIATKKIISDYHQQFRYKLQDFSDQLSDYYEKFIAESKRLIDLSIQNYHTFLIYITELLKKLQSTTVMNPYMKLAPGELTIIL
Procedure for LDL (apoB-100): Circular dichroism. […] Spectra were recorded in the peptidic range (200-260 nm). To increase the signal-to-noise ratio, multiple spectra (three) were averaged for each measurement.

Regarding `CC(C)CCC[C@@H](C)[C@H]1CCC2C(CC=O)C([C@@]3(C)CC[C@H](O)CC3=O)CC[C@@]21C` (stereo partly drawn) [4a, 3β-Hydroxy-5-oxo-5,6-secocholestan-6-al], on LDL (apoB-100), the “random coil of LDL protein” value is around 39±2% and the “α helical structure of LDL protein” value is recorded as around 23±5%. The “lipid-loading of macrophages (foam cell formation)” value in the assay with J774.1 macrophages is “macrophages began lipid-loading and foam cells began to appear; also recorded: induces lipid-loading of macrophages to produce foam cells”.
Take `CC(C)CCC[C@@H](C)[C@H]1CCC2C3C(CC[C@@]21C)[C@@]1(C)CC[C@H](O)C[C@@]1(O)[C@@H]3C=O` (stereo partly drawn) [5a, 3β-Hydroxy-5β-hydroxy-B-norcholestane-6β-carboxaldehyde]: on LDL (apoB-100), the “random coil of LDL protein” value is on record as 32±4% and the “α helical structure of LDL protein” value is listed as around 20±2%. Also, the “lipid-loading of macrophages (foam cell formation)” value with J774.1 macrophages is “macrophages began lipid-loading and foam cells began to appear; also recorded: effect of ozonolysis product 4a upon macrophages was indistinguishable from the effect of ozonolysis product 5a”.

Source of the values: US20050085556A1, “Detection of cholesterol ozonation products” (priority 2003, published 2005).
